# In ChEMBL document CHEMBL1126623, “Neuraminidase-resistant hemagglutination inhibitors: acrylamide copolymers containing a C-glycoside of N-acetylneuraminic acid” (J Med Chem, 1993):
# Species on record: Gallus gallus
# Assay: Tested for inhibition of agglutination of chicken erythrocytes in vitro
# Assay type: functional
smiles,measurement,value
C=CC(=O)NCCSCCCC1(C(=O)O)CC(O)C(NC(C)=O)C(C(O)C(O)CO)O1 (stereo unspecified),Ki,400 nM
